The record followed here is US11840686B2, “Modulation of prekallikrein (PKK) expression” (Ionis Pharmaceuticals, Inc., priority 2013, dated 2023).

Strand notation (5' to 3'): a small letter for the sugar, then the base; units joined by * are phosphorothioate-linked, units joined directly phosphodiester-linked; [ ] holds rarer units or linkages, { } end groups; capitals alone tell only the bases. e = 2'-O-(2-methoxyethyl) (MOE); k = constrained ethyl (cEt); [5mC] = 5-methylcytosine; d = 2'-deoxy (DNA)

This series has as its system human PKK mRNA. Nature of the series: Antisense inhibition of human PKK mRNA in HepaRG cells, 1,000 nM, MOE/deoxy/cEt oligonucleotides (Example 3). Type of series: cell-based. The conditions noted are these: HepaRG cells, 1,000 nM antisense oligonucleotide, Table 29. The method in brief: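 Readout is percent PKK mRNA reduction against untreated controls, by real-time PCR (RTS3454) adjusted for total RNA via RIBOGREEN. Oligonucleotides, phosphorothioate gapmers of 16 nucleosides with cEt, MOE and deoxy sugars, were delivered at 1,000 nM by electroporation to 20,000 HepaRG cells/well for roughly 24 h.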
Turning to “548550 (antisense e[5mC]*e[5mC]*kG*dG*d[5mC]*d[5mC]*dT*dG*dG*dA*dT*dA*d[5mC]*kA*kG*e[5mC]) [compound 548550]”, the % inhibition (in general, the share of the control response that was lost under treatment) was 0%.

For the substance “548551 (antisense e[5mC]*eG*kG*d[5mC]*d[5mC]*dA*dA*dT*dG*dG*dG*dA*dA*kA*kG*eG) [compound 548551]”, the “% inhibition” value turned out to be 25%.

Regarding “548552 (antisense eT*eG*kG*dA*dG*dG*dA*dG*dT*dA*dG*dG*dG*kA*kA*eT) [compound 548552]”, the “% inhibition” value is 10%.

Consider “548553 (antisense e[5mC]*e[5mC]*k[5mC]*dG*dA*dA*dG*dA*dG*dT*d[5mC]*dA*dA*kG*kT*e[5mC]) [compound 548553]”, for which the “% inhibition” value was 46%.

Consider “548554 (antisense eG*eT*kG*d[5mC]*dT*dG*d[5mC]*dA*dT*dT*dG*d[5mC]*dA*kT*kG*eA) [compound 548554]”, for which the “% inhibition” value turned out to be 42%.

Turning to “548555 (antisense eA*e[5mC]*kA*d[5mC]*dG*d[5mC]*d[5mC]*dA*dG*dG*dT*dG*dA*kA*kA*eA) [compound 548555]”, the “% inhibition” value is on record as 2%.

In the case of “548556 (antisense eA*eT*kG*d[5mC]*dA*dT*dG*d[5mC]*d[5mC]*dT*dA*d[5mC]*d[5mC]*k[5mC]*kA*eA) [compound 548556]”, the “% inhibition” value worked out at 43%.

For “548559 (antisense eG*eA*kG*dA*d[5mC]*dT*dG*dA*dA*dG*d[5mC]*d[5mC]*d[5mC]*kT*k[5mC]*eA) [compound 548559]”, the “% inhibition” value stood at 44%.

Consider “548560 (antisense e[5mC]*eA*k[5mC]*dT*dG*d[5mC]*d[5mC]*dT*dA*dG*dA*dA*dA*kG*kG*e[5mC]) [compound 548560]”, for which the “% inhibition” value came to 16%.

For the substance “548561 (antisense eT*eG*kT*dA*dG*dT*dA*dT*d[5mC]*d[5mC]*dA*dG*dA*kG*kT*eA) [compound 548561]”, the “% inhibition” value stood at 46%.

For “548562 (antisense eA*eG*kA*dT*dG*dA*d[5mC]*d[5mC]*dT*dG*d[5mC]*dA*dG*kA*kT*eG) [compound 548562]”, the “% inhibition” value turned out to be 50%.

In the case of “548563 (antisense eA*eA*kA*d[5mC]*d[5mC]*dA*dT*dG*dA*dA*dT*dT*dA*kG*kG*eT) [compound 548563]”, the “% inhibition” value is on record as 20%.

Regarding “548564 (antisense eT*eT*kG*d[5mC]*dT*dA*d[5mC]*dT*dT*dT*dA*d[5mC]*dA*k[5mC]*k[5mC]*eA) [compound 548564]”, the “% inhibition” value was determined as 69%.

With “548565 (antisense eG*eG*k[5mC]*dA*dT*dT*dA*dG*dG*dA*dT*dA*dG*kG*k[5mC]*eA) [compound 548565]”, the “% inhibition” value is listed as 63%.

On to “548566 (antisense e[5mC]*eA*k[5mC]*dT*d[5mC]*dA*dG*dA*d[5mC]*dT*dG*dT*d[5mC]*kT*kG*eA) [compound 548566]”, for which the “% inhibition” value was found to be 0%.

Consider “548567 (antisense eA*eG*kA*dT*d[5mC]*d[5mC]*dG*dG*dA*dA*dT*dA*dA*k[5mC]*k[5mC]*eA) [compound 548567]”, for which the “% inhibition” value is given as 67%.

For the substance “548568 (eA*eT*kT*dG*dA*d[5mC]*dA*dA*d[5mC]*d[5mC]*dA*dT*d[5mC]*k[5mC]*kT*eA; antisense) [compound 548568]”, the “% inhibition” value is on record as 27%.

On to “548569 (eA*e[5mC]*kT*d[5mC]*dA*dT*dT*dG*dG*dT*d[5mC]*dT*dA*k[5mC]*kA*eG; antisense) [compound 548569]”, for which the “% inhibition” value stood at 41%.

For the substance “548571 (eA*e[5mC]*kT*d[5mC]*dT*dG*dA*dG*dG*d[5mC]*d[5mC]*dT*dT*kA*kG*eG; antisense) [compound 548571]”, the “% inhibition” value is reported as 59%.

“548572 (eG*e[5mC]*kA*dT*dT*dA*d[5mC]*dT*d[5mC]*dA*dG*d[5mC]*dA*kT*kG*eT; antisense) [compound 548572]”: the “% inhibition” value is listed as 63%.

Regarding “548573 (e[5mC]*e[5mC]*kA*dG*dT*d[5mC]*dA*d[5mC]*d[5mC]*dA*d[5mC]*d[5mC]*dA*kT*kT*eG; antisense) [compound 548573]”, the “% inhibition” value is 65%.

Turning to “548574 (eG*eG*kT*d[5mC]*dT*dA*dA*d[5mC]*dT*d[5mC]*dT*dA*dA*kG*kG*eG; antisense) [compound 548574]”, the “% inhibition” value is 0%.

Turning to “548575 (eT*eG*kT*d[5mC]*d[5mC]*dT*dT*dT*dA*dA*dA*dG*dT*kA*kT*e[5mC]; antisense) [compound 548575]”, the “% inhibition” value is given as 18%.

Turning to “548576 (eT*e[5mC]*kA*dT*dG*dT*dG*dG*d[5mC]*dA*dA*d[5mC]*d[5mC]*kT*kG*eT; antisense) [compound 548576]”, the “% inhibition” value turned out to be 41%.

In the case of “548577 (eA*eA*kT*d[5mC]*dT*dG*d[5mC]*dA*d[5mC]*d[5mC]*dT*dG*dG*k[5mC]*kA*eG; antisense) [compound 548577]”, the “% inhibition” value came to 42%.

Regarding “548578 (e[5mC]*eA*kT*dG*dG*d[5mC]*dT*dA*dT*dT*dG*d[5mC]*dT*kT*k[5mC]*e[5mC]; antisense) [compound 548578]”, the “% inhibition” value is 73%.

Take “548579 (eG*eG*kG*d[5mC]*dT*dA*dT*dA*dT*dT*dG*d[5mC]*d[5mC]*kA*kG*e[5mC]; antisense) [compound 548579]”: the “% inhibition” value came out at 46%.

On to “548580 (e[5mC]*e[5mC]*kA*dG*dA*dG*d[5mC]*d[5mC]*dT*dT*dG*dA*dT*k[5mC]*kA*eG; antisense) [compound 548580]”, for which the “% inhibition” value is on record as 36%.

Consider “548581 (eG*eG*kT*dG*dG*dG*dT*dT*dA*dT*d[5mC]*dT*dG*kA*kG*eA; antisense) [compound 548581]”, for which the “% inhibition” value was 13%.

“548582 (eT*eA*kG*d[5mC]*dT*d[5mC]*d[5mC]*dA*dT*dG*d[5mC]*dT*dG*kT*kG*eT; antisense) [compound 548582]”: the “% inhibition” value was determined as 59%.

Turning to “548584 (eT*eG*kA*dT*dG*dA*dA*dG*dT*dT*d[5mC]*d[5mC]*dA*k[5mC]*k[5mC]*eT; antisense) [compound 548584]”, the “% inhibition” value was determined as 47%.

Consider “548585 (eT*eA*kG*dG*d[5mC]*dA*d[5mC]*dA*dG*dA*d[5mC]*dA*dA*k[5mC]*k[5mC]*eT; antisense) [compound 548585]”, for which the “% inhibition” value was found to be 33%.

Take “548586 (eT*e[5mC]*k[5mC]*dA*dA*d[5mC]*dT*dA*d[5mC]*dA*dG*dG*dA*k[5mC]*kT*e[5mC]; antisense) [compound 548586]”: the “% inhibition” value came to 39%.

Take “548587 (eT*eT*k[5mC]*dT*dG*dG*dG*dA*dA*dA*d[5mC]*dT*d[5mC]*kT*k[5mC]*eT; antisense) [compound 548587]”: the “% inhibition” value came to 45%.

Take “548588 (eA*eG*k[5mC]*dT*d[5mC]*dA*d[5mC]*dA*d[5mC]*d[5mC]*d[5mC]*dA*dA*kA*kA*eA; antisense) [compound 548588]”: the “% inhibition” value was found to be 10%.

On to “548589 (eT*e[5mC]*kT*dG*dT*dT*dA*d[5mC]*d[5mC]*dT*dT*dG*dA*kG*kG*eA; antisense) [compound 548589]”, for which the “% inhibition” value stood at 40%.

In the case of “548590 (eT*eG*kG*dT*d[5mC]*dA*dT*dG*dT*d[5mC]*dA*dA*d[5mC]*kT*kG*eT; antisense) [compound 548590]”, the “% inhibition” value is listed as 35%.

On to “548591 (eG*eT*kA*dA*dG*d[5mC]*d[5mC]*dT*dT*d[5mC]*dA*d[5mC]*dA*kG*kG*eG; antisense) [compound 548591]”, for which the “% inhibition” value was 3%.

As for “548592 (e[5mC]*eT*k[5mC]*dA*d[5mC]*d[5mC]*dA*dG*dA*dG*dT*dT*dG*kT*k[5mC]*e[5mC]; antisense) [compound 548592]”, the “% inhibition” value was 7%.

“548593 (e[5mC]*eA*kT*d[5mC]*d[5mC]*d[5mC]*dT*dG*dA*d[5mC]*dA*dG*dG*kT*k[5mC]*e[5mC]; antisense) [compound 548593]”: the “% inhibition” value is 61%.

On to “548594 (e[5mC]*e[5mC]*k[5mC]*dT*dT*d[5mC]*dT*dA*dA*d[5mC]*d[5mC]*dA*dA*kG*kG*eA; antisense) [compound 548594]”, for which the “% inhibition” value was 30%.

As to “548595 (eG*eG*kA*dT*dG*dA*dG*dA*dT*dG*d[5mC]*dA*dT*k[5mC]*k[5mC]*eA; antisense) [compound 548595]”, the “% inhibition” value was determined as 8%.

With “548596 (eA*eT*kG*dG*d[5mC]*dG*dG*dT*dG*dA*dA*dG*d[5mC]*kA*kG*e[5mC]; antisense) [compound 548596]”, the “% inhibition” value amounted to 20%.

As for “548597 (eT*eG*kA*dA*dT*dA*d[5mC]*d[5mC]*dA*dT*d[5mC]*d[5mC]*d[5mC]*k[5mC]*kG*e[5mC]; antisense) [compound 548597]”, the “% inhibition” value amounted to 50%.

For the substance “548598 (eG*e[5mC]*kG*d[5mC]*d[5mC]*dA*dT*d[5mC]*dT*dG*d[5mC]*d[5mC]*d[5mC]*kT*kG*eT; antisense) [compound 548598]”, the “% inhibition” value was found to be 50%.

For “548599 (eT*eG*kG*dG*dT*dT*dG*dG*dA*dG*dG*dA*dG*kT*kG*eG; antisense) [compound 548599]”, the “% inhibition” value stood at 19%.

As for “548600 (eT*eG*kG*dT*dG*dG*dT*dG*dG*dG*dA*dT*dT*kG*kG*eT; antisense) [compound 548600]”, the “% inhibition” value came to 53%.

With “548601 (eT*eT*kG*dG*dT*dG*dG*dT*dG*dG*dG*dA*dT*kT*kG*eG; antisense) [compound 548601]”, the “% inhibition” value was found to be 18%.

In the case of “548602 (eG*eG*kT*dG*dG*dT*dG*dG*dA*dA*dT*dT*dG*kG*kT*eG; antisense) [compound 548602]”, the “% inhibition” value came to 20%.

For the substance “548603 (eG*eA*kG*dA*dT*dT*dG*dG*dT*dG*dG*dT*dG*kG*kG*eT; antisense) [compound 548603]”, the “% inhibition” value was found to be 35%.

Consider “548604 (eG*eT*kG*dG*dT*dG*dG*dG*dA*dT*dT*dG*dG*kT*kG*e[5mC]; antisense) [compound 548604]”, for which the “% inhibition” value is 22%.

“548605 (eT*eG*kG*d[5mC]*dG*dG*dG*dA*dT*dT*dG*dG*dT*kG*kG*eT; antisense) [compound 548605]”: the “% inhibition” value is 12%.
